The values that follow are results of earlier work, collected in patent publication US20240226060A1, “TOPICAL LIPOSOME POLYPHENOL COMPOSITIONS FOR TREATING AND PREVENTING VARIOUS SKIN DISORDERS AND METHODS OF PREPARATION THEREOF” (PANAG PHARMA INC., priority 2021, published 2024).

Like-named read-outs stand apart in the source and are kept apart here.

In one series the test system is facial acne vulgaris. To be noted: for revised Leeds score at week 8: baseline 5.1.
The conditions of series [1]: simulated physiological conditions pH 7.4 and 37° C., within 24 hours.
For the next series, the system named is epidermolysis bullosa. To be noted: CBD oil, 3 patients.
The subject of the next series is facial skin aging. To be noted: 1% apigenin cream, twice daily, 2 and 4 weeks.
Experiment in series [2]: not given
This is another data set of the same source.

The conditions of series [3]: 2% minoxidil in MLVs.
Setting [4] is: 1% EGCG, 8 weeks, vs baseline and vehicle.
[5] abbreviates: surfactant micelles, U.S. Pat. No. 10,709,748.
[6] abbreviates: twice daily 3 days, 4 hours after last dose.

As for epigallocatechin 3-gallate [EGCG], the “revised Leeds score at week 8” value in the series with facial acne vulgaris (1% EGCG hydroalcoholic solution) is listed as 1.2. Further, in the series on facial acne vulgaris (setting [4]), the “mean inflammatory lesion count decrease” value is reported as 89% and the “mean noninflammatory lesion count decrease” value was 79%. In addition, in the series with facial acne vulgaris (5% EGCG hydroalcoholic solution), the “revised Leeds score at week 8” value is listed as 1.7.

Regarding `C=C(C)[C@@H]1CCC(C)=C[C@H]1c1c(O)cc(CCCCC)cc1O` [CBD, cannabidiol], the “joint swelling and pain” value is “optimally reduced swelling and alleviated pain” in the series with CFA-induced arthritis (1% CBD gel on shaved back, 4 days); “did not yield additional improvement” in the series on CFA-induced arthritis (10% CBD gel versus 1%). The CFA-induced edema entry in the series on CFA-induced arthritis (lower doses (0.1, 0.5% CBD gel)) is “no effect”. Besides, the CBD loss in series [1] was 10%. Moreover, the encapsulation efficiency under setting [5] was 86%. Besides, the patient-reported outcome with epidermolysis bullosa is “faster wound healing, less blistering, and amelioration of pain”.

With `CCCCCc1cc(O)c2c(c1)OC(C)(C)[C@@H]1CCC(C)=C[C@@H]21` [THC, tetrahydrocannabinol], the encapsulation efficiency under setting [5] was 92%.

As for `O=c1cc(-c2ccc(O)cc2)oc2cc(O)cc(O)c12` [apigenin], in the series on facial skin aging, the “dermal density, skin elasticity, length of fine wrinkles” value is recorded as “Significant improvements”; the “skin moisture content, TEWL and skin texture” value was “significantly improved”. Besides, the solubility entry in series [2] (ethanol) is “poor solubility”. Moreover, in series [2] (propylene glycol and polyethylene glycol 400), the solubility result is “superior solubilities”.

Take `Nc1cc(N2CCCCC2)nc(N)[n+]1[O-]` [minoxidil]: the “drug in cumulative urine samples, liposome versus suspension & solution” value in [3] is on record as “significant less drug”. Further, in series [3] (setting [6]), the “drug content in dermis, liposome versus suspension & solution” value was 4-5 fold; the “drug content in epidermis, liposome versus suspension & solution” value was 2-3 fold; the “drug content on skin surface, liposome versus suspension & solution” value is on record as 3-4 fold.

Take `Clc1ccc(COC(Cn2ccnc2)c2ccc(Cl)cc2Cl)c(Cl)c1` (stereo not drawn) [miconazole nitrate]: the encapsulation efficiency (proliposome method with propylene glycol, El-Khordagui et al) is 95.6%.

With `CC(=O)[C@H]1CC[C@H]2[C@@H]3CCC4=CC(=O)CC[C@]4(C)[C@H]3CC[C@]12C` [progesterone], where the note is “DPPC/cholesterol MLVs, thin film hydration, U.S. Pat. No. 4,485,054”, the “encapsulation efficiency (EE)” value is 77%.

As for `Oc1ccc(O)cc1` [hydroquinone], the “patients presenting with erythema, burning and scaling” value in the series with melasma (4% cream in melasma patients) is reported as 71%. For the same molecule, in the series with melasma (4% cream, after three months), the “MASI score reduction from baseline” value is recorded as 39%.

In the case of isoscutellarein, where the note is “liposomes, 9 parts egg PC to 2 parts flavonoid, Demetzos et al”, the incorporation efficiency is recorded as 95%.
